Laboratory results from patent publication US20230233617A1, “METHODS FOR DIFFERENTIATING STEM CELLS INTO DOPAMINERGIC PROGENITOR CELLS” (JZ CELL TECHNOLOGIES AB, priority 2020, published 2023).

What was measured:
[1] = system: hPSC-derived NSCs; assay: Ventral regional identity of hPSC-derived NSCs at 9 DDC in dSMADi+SAG conditions (NKX2.1, LMX1A, PHOX2B, NKX2.2); format: cell-based, human; details: 9 DDC
[2] = system: hPSC-derived vMB progenitors; assay: Neurogenesis and mDA neuron yield in differentiating hPSC cultures (HuCD, TuJ1, TH, GABA immunocytochemistry, electrophysiology); format: cell-based, human
Description: A unique feature of mDA neurons is that they originate from initially non-neuronal floor plate (FP) cells at the ventral midline of the MB, and progenitors must acquire neuronal potential prior to differentiation into neurons^30,44. Few markers distinguish between these states, but downregulation of SHH and upregulation pro-neural bHLH proteins over time correlate with this transition^44. […] In RA^2D+SAG cultures at 21 DDC, ˜30% of DAPI^+ cells accounted for HuCD^+ neurons (FIG. 4d) and many of these had initiated expression of TH (FIG. 4c). When we instead used CHIR99021+SAG to specify LMX1A^+/NKX2.1^− vMB progenitors (FIG. 3b), cells initiated neurogenesis at around 17 DDC (FIG. 4c, d) which is consistent with previous studies^9,13. At 21 DDC, HuCD^+ neurons constituted ˜10% of total cells and few neurons expressed TH (FIG. 4c, d).
TH^+ neurons acquired a progressively more advanced neuronal morphology with a progressive outgrowth of TH^+ axonal processes in RA^2D+SAG cultures between 30-45 DDC (FIG. 4e, g, h; FIG. 8f (Supplementary FIG. 2f)). TH^+ neurons expressed mDA neuron markers LMX1A, LMX1B, FOXA2, NURR1, and OTX2 at 30-35 DDC (FIG. 4e). […] TH^+ neurons also expressed the mature neuronal marker SYNAPTOPHYSIN and the monoaminergic marker VMAT2 (FIG. 40. A subset of cells expressed GIRK2 or CALBINDIN indicating the presence of both A9- and A10-like subtypes of mDA neurons^45 (FIG. 4f). At 35 DDC, ˜80% of neurons expressed TH^+ which corresponded to ˜65% of total DAPI^+ cells (FIG. 4i, j). ˜10% of neurons expressed GABA (FIG. 4i, j), and some of these co-expressed TH (FIG. 10c (Supplementary FIG. 4c)). Only rare neurons expressing 5-HT or the MN marker PERIPHERIN were detected (FIG. 4i, j). High performance liquid chromatography (HPLC) analyses at 42 DDC established that neurons produced and released dopamine (FIG. 4k, I) but not serotonin (5-HT) or noradrenaline (NA) (FIG. 4k). […] Very few cells expressed Ki67 or phospho-histone H3 at 35-40 DDC indicating low mitotic activity after long-term culturing of cells (FIG. 4i). Functional maturation of mDA neurons in vitro can be monitored by determining the time when hPSC-derived mDA neurons acquire spontaneous action potentials, evoked action potentials and voltage-dependent Na^+ and K^+ currents, and these traits were previously reported to be attained after ˜60 days of culture of FACS-enriched mDA neurons (25+36 days: before/after sorting) using current state-of-the-art protocols^7. […] Neurons showing both spontaneous (FIG. 4m) and evoked action potentials (FIG. 4n) could be recorded at 40 DDC.
80-90% confluent PSCs cultures were rinsed twice with PBS, treated with EDTA (0.5 mM in PBS) for 5-7 min, and resuspended into single cell suspension in PBS. Cells were spin down at 400 g and resuspended in N2B27 medium (DMEM/F12: Neurobasal (1:1), 0.5×N2 and 0.5×B27 (plus vitamin A) supplements, 1×nonessential amino acids, 1% GlutaMAX, 55 μM β-mercaptoethanol-all from Thermo Fisher Scientific) containing 5 μM SB431542 (Miltenyi Biotech) and 2.5 μM DMH1 (Santa Cruz Biotech) (dual SMAD inhibition), and 10 μM ROCK inhibitor (for the first 48 hours after seeding). Cells were seeded on VTN (2 μg/cm^2) and Fibronectin (FN) (2 μg/cm^2) (Sigma) coated surface at a density of 60,000-80,000 cells/cm^2 for RA- and RA-analogues based experiments, and 20,000 cells/cm^2 for CHIR99021 experiments. SAG1.3 (Santa Cruz Biotechnology), CHIR99021 (Miltenyi Biotech), all-trans RA, 9-cis RA, 13-cis RA, Tazarotenic acid, R115866 (all Sigma), EC23 (Amsbio) were used at concentrations and time points described in the result section. For mDA neuron differentiation (see schematic drawing FIG. 4) neural progenitors were mechanically dissociated at 9 DDC with Stem Cell Passaging Tool (Thermo Fisher Scientific) and seeded at 1:3 ratio in N2B27 medium containing 10 μM ROCK inhibitor (for first 48 hours after dissociation) on VTN and FN coated surfaces. […]

CC1=C(/C=C/C(C)=C/C=C/C(C)=C/C(=O)O)C(C)(C)CCC1 [RA, all-trans retinoic acid]
ventral identity of NSCs ([1]; RA^1D+SAG): expressed the FB-specific markers FOXG1, SIX3, SIX6, and LHX2 | identity of NSCs ([1]; RA^2D+SAG, 100 nM or 800 nM RA): LMX1A^+/NKX2.1^− NSCs were generated but at lower numbers | RA concentration at which the vast majority of NSCs expressed LMX1A+/NKX2.1− vMB-identity ([1]; RA^2D+SAG): 200 to 400 nM | ventral identity of NSCs ([1]; RA^2D+SAG): LMX1A^+/LMX1B^+/FOXA2^+/OTX2^+ identity characteristic of vMB mDA neuron progenitors | ventral identity of NSCs ([1]; RA^3D+SAG or RA^4D+SAG): expressed HOX genes and the ventral markers NKX2.2, PHOX2B, NKX6.1, and NKX6.2 typical of cranial motor neuron (MN) progenitors of the HB | time at which the 48 hour RA-pulse must be initiated for effective induction of vMB NSC identity ([1]; dSMADi+SAG): 0-2 DDC | share of cell population that are ventral midbrain dopaminergic progenitor cells (FOXA2, LMX1A, LMX1B, OTX2) ([2]; 14 DDC, immunocytochemistry): about 80% | HuCD+ neurons as share of total DAPI+ cells ([2]; 21 DDC, with SAG): ~30% | TH+ cells of total DAPI+ cells ([2]; RA^2D+SAG, 35 DDC): ~65% | neurons expressing GABA ([2]; RA^2D+SAG, 35 DDC): ~10% | neurons expressing TH ([2]; RA^2D+SAG, 35 DDC, of neurons): ~80% | culture time to mDA neurons exhibiting mature functional features ([2]; RA^2D+SAG, spontaneous and evoked action potentials): 40 days | time of initiation of neurogenesis (first neurons) ([2]; with SAG): 12 DDC
